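The compound was tested at five concentrations on cells cultured in 96-well plates, with a 48-hour exposure period. The concentration for 50% growth inhibition is given as GI50. The concentration for full growth arrest is given as TGI.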
Assays:
Assay in all cases: NCI anticancer screen, dose series, 48 h
DMS 114 small cell lung = tested on: DMS 114 small cell lung
HOP-18 NSCLC = tested on: HOP-18 NSCLC
KM20L2 colon = tested on: KM20L2 colon
XF 498 CNS = tested on: XF 498 CNS
RXF-631 renal = tested on: RXF-631 renal
SNB-78 CNS = tested on: SNB-78 CNS
MDA-N = tested on: MDA-N

C=C[C@@H](C)[C@]1(C(=O)OC)CCCC12OCCO2
TGI (DMS 114 small cell lung): > 100 µM | TGI (HOP-18 NSCLC): > 100 µM | TGI (KM20L2 colon): > 100 µM | TGI (XF 498 CNS): > 100 µM

O=C(CCC(=O)Nc1ccc(Cl)c(Cl)c1)Cc1nc2ccccc2o1
TGI (DMS 114 small cell lung): > 100 µM | TGI (HOP-18 NSCLC): > 100 µM | TGI (KM20L2 colon): > 100 µM | TGI (RXF-631 renal): > 100 µM | TGI (SNB-78 CNS): > 100 µM

Cc1nc([N+](=O)[O-])cn1-c1nc2ccccn2c1[N+](=O)[O-]
TGI (MDA-N): > 100 µM

COC(COC(N)=O)C1=C(N2CC2)C(=O)C(C)=C(N2CC2)C1=O (stereo unspecified)
TGI (DMS 114 small cell lung): 0.38 µM | TGI (HOP-18 NSCLC): 0.902 µM | TGI (KM20L2 colon): 0.525 µM | TGI (MDA-N): 0.269 µM | TGI (SNB-78 CNS): 8.44 µM | TGI (XF 498 CNS): 0.415 µM

CSc1ccc2c(cc1=O)[C@@H](NC(=O)c1cccc([N+](=O)[O-])c1)CCc1cc(O)c(O)c(O)c1-2
TGI (DMS 114 small cell lung): 60 µM | TGI (HOP-18 NSCLC): > 100 µM | TGI (KM20L2 colon): 56.5 µM | TGI (RXF-631 renal): > 100 µM

Cc1cnc2ccc(C)c([N+](=O)[O-])c2c1NCCCN(C)C
TGI (DMS 114 small cell lung): > 100 µM | TGI (KM20L2 colon): > 100 µM | TGI (SNB-78 CNS): > 100 µM | TGI (XF 498 CNS): > 100 µM

Cc1c(C)c2ccc3oc4ccccc4c3c2oc1=O
TGI (DMS 114 small cell lung): > 100 µM | TGI (HOP-18 NSCLC): > 100 µM | TGI (KM20L2 colon): > 100 µM | TGI (RXF-631 renal): > 100 µM | TGI (SNB-78 CNS): > 100 µM

Cc1ccc(C)c(N2C(=O)C(=O)C(c3nc4ccccc4s3)/C(=N/N)C2=O)c1 (stereo unspecified)
TGI (DMS 114 small cell lung): > 100 µM | TGI (HOP-18 NSCLC): > 100 µM | TGI (KM20L2 colon): > 100 µM | TGI (SNB-78 CNS): > 100 µM | TGI (XF 498 CNS): > 100 µM

CCOC(OC(C)=O)[C@@H]1C=C[C@H](C)N(c2ccc([N+](=O)[O-])cc2)O1 (stereo partly specified)
TGI (DMS 114 small cell lung): 16.9 µM | TGI (HOP-18 NSCLC): 17.8 µM | TGI (KM20L2 colon): 34.3 µM | TGI (RXF-631 renal): 25.7 µM | TGI (SNB-78 CNS): 60.4 µM | TGI (XF 498 CNS): 32.6 µM

O=C(O)c1cc(-c2ccc3cc4c(cc3c2)OCO4)nc2ccccc12
TGI (MDA-N): > 100 µM

COc1cc2cc(OC(C)=O)c3cc4c(cc3c2c(OC)c1OC)OCO4
TGI (DMS 114 small cell lung): > 100 µM | TGI (HOP-18 NSCLC): > 100 µM | TGI (KM20L2 colon): > 100 µM | TGI (RXF-631 renal): > 100 µM | TGI (SNB-78 CNS): > 100 µM | TGI (XF 498 CNS): > 100 µM

COC(=O)c1cc2c(=O)n(C)c3ccccc3n2c1C(=O)OC
TGI (DMS 114 small cell lung): > 100 µM | TGI (KM20L2 colon): > 100 µM | TGI (RXF-631 renal): > 100 µM | TGI (SNB-78 CNS): > 100 µM | TGI (XF 498 CNS): 51.3 µM

C=C(C)[C@H]1CC[C@@]2(C)C(C1)[C@H](C)CC[C@@H]2O (stereo partly specified)
TGI (DMS 114 small cell lung): > 100 µM | TGI (HOP-18 NSCLC): > 100 µM | TGI (KM20L2 colon): > 100 µM | TGI (RXF-631 renal): > 100 µM | TGI (SNB-78 CNS): > 100 µM | TGI (XF 498 CNS): > 100 µM

Cc1c(-c2cnccn2)ssc1=S
TGI (MDA-N): > 100 µM

CN(CCS(=O)(=O)N1C(=O)C2CCCN2C(=O)[C@@H]1Cc1ccccc1)C(=O)OCc1ccccc1 (stereo partly specified)
TGI (DMS 114 small cell lung): > 100 µM | TGI (HOP-18 NSCLC): > 100 µM | TGI (KM20L2 colon): > 100 µM | TGI (RXF-631 renal): > 100 µM | TGI (SNB-78 CNS): > 100 µM

COc1ccc(Nc2nc3cc(N)cc(N)c3nc2-c2ccccc2)cc1
GI50 (MDA-N): 21.6 µM | TGI (MDA-N): 36 µM

CC(=O)Nc1ccc(/C=C/C(=O)c2sc(-c3cccnc3)nc2C)cc1
TGI (DMS 114 small cell lung): > 100 µM | TGI (HOP-18 NSCLC): > 100 µM | TGI (KM20L2 colon): > 100 µM | TGI (SNB-78 CNS): > 100 µM

CCc1nc(N)nc(N)c1-c1ccc(Cl)c([N+](=O)[O-])c1
TGI (MDA-N): > 100 µM

O=C1C=C(Nc2ccc(Cl)cc2Cl)c2ccccc2C1=O
TGI (DMS 114 small cell lung): 64.1 µM | TGI (KM20L2 colon): > 100 µM | TGI (RXF-631 renal): > 100 µM | TGI (SNB-78 CNS): > 100 µM

O=C(O)CCNCC(=O)O
TGI (MDA-N): > 100 µM

O=C1[C@H]2ON(c3ccccc3)C(c3ccc([N+](=O)[O-])cc3)[C@H]2C(=O)N1c1ccc(Cc2ccc(N3C(=O)[C@@H]4ON(c5ccccc5)C(c5ccc([N+](=O)[O-])cc5)[C@@H]4C3=O)cc2)cc1 (stereo partly specified)
TGI (DMS 114 small cell lung): > 100 µM | TGI (HOP-18 NSCLC): > 100 µM | TGI (KM20L2 colon): > 100 µM | TGI (RXF-631 renal): > 100 µM | TGI (SNB-78 CNS): > 100 µM

COC(=O)[C@@H]1c2cc3c(c(O)c2[C@@H](OC2OC(C)C(OC)C(C)(OC)C2OC)C[C@]1(C)O)C(=O)c1c(O)cc2c(c1C3=O)O[C@H]1O[C@]2(C)[C@H](O)[C@@H](N(C)C)[C@@H]1O (stereo partly specified)
TGI (DMS 114 small cell lung): 0.00521 µM | GI50 (HOP-18 NSCLC): 0.0404 µM | GI50 (KM20L2 colon): 0.0127 µM | TGI (MDA-N): 0.179 µM | TGI (SNB-78 CNS): 0.0762 µM

CC(C)N(C(=O)C12C3C4C5(C#N)C3C1(C#N)C5C42C#N)C(C)C (stereo unspecified)
TGI (DMS 114 small cell lung): > 100 µM | TGI (HOP-18 NSCLC): > 100 µM | TGI (KM20L2 colon): > 100 µM | TGI (SNB-78 CNS): > 100 µM | TGI (XF 498 CNS): > 100 µM

N#C/C(=C\c1cc(O)cc(O)c1)C(N)=O
TGI (DMS 114 small cell lung): > 100 µM | TGI (KM20L2 colon): > 100 µM | TGI (RXF-631 renal): > 100 µM | TGI (SNB-78 CNS): > 100 µM | TGI (XF 498 CNS): > 100 µM

O=C(O)CSc1n[nH]c(=O)[nH]c1=O
TGI (MDA-N): > 100 µM

OCC1C(OCc2ccccc2)C(OCc2ccccc2)C(OCc2ccccc2)CN1Cc1ccccc1 (stereo unspecified)
TGI (MDA-N): > 100 µM

C/C(=N\N=C(N)N)C(CN1CCCCC1)C(c1ccccc1)c1c(O)c2ccccc2oc1=O (stereo unspecified)
TGI (DMS 114 small cell lung): > 100 µM | TGI (KM20L2 colon): > 100 µM | TGI (RXF-631 renal): > 100 µM | TGI (XF 498 CNS): > 100 µM

NC(=O)NNC(=O)CCn1[nH]c(=O)c(Cl)c(Cl)c1=O
TGI (DMS 114 small cell lung): > 100 µM | TGI (HOP-18 NSCLC): > 100 µM | TGI (KM20L2 colon): > 100 µM | TGI (RXF-631 renal): > 100 µM | TGI (SNB-78 CNS): > 100 µM

C/C=C(\C)c1cc(=O)c2c(C)cc3c(c2o1)C(=O)c1c(O)c(C2CC(C)(N(C)C)C(OC(C)=O)C(C)O2)cc(C2CC(N(C)C)C(O)C(C)O2)c1C3=O (stereo unspecified)
TGI (MDA-N): 4.83 µM

CC(C)(C)C1=CC(=C(P(=O)(O)O)P(=O)(O)O)C=C(C(C)(C)C)C1=O
TGI (DMS 114 small cell lung): > 50 µM | TGI (HOP-18 NSCLC): > 50 µM | TGI (KM20L2 colon): > 50 µM | TGI (RXF-631 renal): > 50 µM | TGI (SNB-78 CNS): > 50 µM

O=C(C(=O)c1cc2ccccc2[nH]1)c1cc2ccccc2[nH]1
TGI (DMS 114 small cell lung): > 347 µM | TGI (KM20L2 colon): > 347 µM | TGI (RXF-631 renal): > 347 µM | TGI (SNB-78 CNS): > 347 µM | TGI (XF 498 CNS): 336 µM

CCOC(=O)Cc1c(C)c2cc(C(=O)c3ccccc3)c(O)cc2oc1=O
TGI (MDA-N): > 100 µM

COC1CCC(OS(C)(=O)=O)C(CO)O1 (stereo unspecified)
TGI (KM20L2 colon): > 100 µM | TGI (XF 498 CNS): > 100 µM

COc1ccc(Cc2c3cc(O)c(=O)cc-3ccn2C)cc1
TGI (DMS 114 small cell lung): 62.4 µM | TGI (HOP-18 NSCLC): > 100 µM | TGI (KM20L2 colon): > 100 µM | TGI (RXF-631 renal): > 100 µM | TGI (SNB-78 CNS): > 100 µM | TGI (XF 498 CNS): > 100 µM

C=CCC1(CN(C)C)CC/C(=C\c2ccc(OC)cc2)C1=O (stereo unspecified)
TGI (DMS 114 small cell lung): > 100 µM | TGI (HOP-18 NSCLC): > 100 µM | TGI (KM20L2 colon): > 100 µM | TGI (RXF-631 renal): 49 µM | TGI (SNB-78 CNS): > 100 µM

NNC(=O)C(=O)N/N=C(\CCCC(=O)Nc1ccc(Cl)cc1)CC(=O)c1ccc(F)cc1
TGI (DMS 114 small cell lung): > 100 µM | TGI (HOP-18 NSCLC): > 100 µM | TGI (KM20L2 colon): > 100 µM | TGI (RXF-631 renal): > 100 µM | TGI (SNB-78 CNS): > 100 µM | TGI (XF 498 CNS): > 100 µM

C=C(CCCCC)CN1CCCC1C(C)=O (stereo unspecified)
TGI (DMS 114 small cell lung): 42.8 µM | TGI (HOP-18 NSCLC): > 94.8 µM | TGI (KM20L2 colon): > 100 µM | TGI (SNB-78 CNS): > 76.6 µM | TGI (XF 498 CNS): 41.7 µM

O=C(/C=C\c1ccccc1O)c1ccc(O)cc1O
TGI (DMS 114 small cell lung): > 100 µM | TGI (HOP-18 NSCLC): > 100 µM | TGI (KM20L2 colon): > 100 µM | TGI (RXF-631 renal): > 100 µM | TGI (SNB-78 CNS): > 100 µM

C=CCNC(=O)NCCCCC(NC(C)=O)C(=O)NCc1ccccc1 (stereo unspecified)
TGI (DMS 114 small cell lung): > 100 µM | TGI (HOP-18 NSCLC): > 100 µM | TGI (KM20L2 colon): > 100 µM | TGI (XF 498 CNS): > 100 µM

Oc1ccc(C=Nc2ccccc2O)cc1
TGI (MDA-N): 33.8 µM

CCC[C@H]1O[C@@H]2CC(=O)O[C@@H]2C2=C1C(=O)C=CC2=O
TGI (HOP-18 NSCLC): 31.9 µM | TGI (KM20L2 colon): 43.8 µM | TGI (SNB-78 CNS): 45.7 µM

CC1(C)OC2C(CCP(=O)(O)O)OC(c3nc(C(N)=O)cs3)C2O1 (stereo unspecified)
TGI (DMS 114 small cell lung): > 100 µM | TGI (HOP-18 NSCLC): > 100 µM | TGI (KM20L2 colon): > 100 µM | TGI (RXF-631 renal): > 100 µM

CC1=N/C(=C/c2ccc3c(c2)OCO3)C(=O)O1
TGI (DMS 114 small cell lung): > 100 µM | TGI (HOP-18 NSCLC): > 100 µM | TGI (KM20L2 colon): > 100 µM | TGI (RXF-631 renal): > 100 µM | TGI (SNB-78 CNS): > 100 µM | TGI (XF 498 CNS): > 100 µM

Reference: PubChem BioAssay (NCI)
